Experimental findings from patent publication US20110105509A1 (Wyeth, LLC, priority 2009, published 2011) are described below.

A word on the IC50: it is the point on the concentration scale where inhibition reaches its midpoint. Higher therefore signals weaker potency.

The target of this assay is T1, CRTH2 (Homo sapiens, UniProt Q9Y5Y4).
T1 construct: expressed in transfected cells; host or cells: CHO cells
T1 sequence (Q9Y5Y4 1-395): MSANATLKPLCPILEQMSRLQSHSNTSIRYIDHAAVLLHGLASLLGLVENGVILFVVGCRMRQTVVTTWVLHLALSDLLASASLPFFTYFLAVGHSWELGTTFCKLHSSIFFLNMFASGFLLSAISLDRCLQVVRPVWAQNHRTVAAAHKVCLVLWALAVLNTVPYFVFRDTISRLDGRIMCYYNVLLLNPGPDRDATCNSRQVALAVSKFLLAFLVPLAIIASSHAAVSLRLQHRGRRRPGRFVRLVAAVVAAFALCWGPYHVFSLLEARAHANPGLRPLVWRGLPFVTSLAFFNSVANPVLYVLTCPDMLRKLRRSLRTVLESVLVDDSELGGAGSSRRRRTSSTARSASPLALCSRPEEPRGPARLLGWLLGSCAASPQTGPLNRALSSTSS
The assay is described as follows: FRET based competitive immunoassay (cAMP) in CRTH2 expressing CHO cells. It counts as cell-based. The conditions noted are these: CRTH2 expressing CHO cells incubated with forskolin and PGD2; Eu3+ cryptate-labeled anti-cAMP and d2-labeled cAMP. The protocol: FRET Assay: To evaluate potency compounds were tested in a FRET based competitive immunoassay in which CRTH2 expressing CHO cells were incubated in the presence of forskolin and PGD2 along with Eu3+ cryptate-labeled anti-cAMP and d2-labeled cAMP.
For `Cc1c(-c2ccc(=O)n(Cc3c(F)cccc3F)c2)c2ccccc2n1CC(=O)O` [Example 285, 2-(3-(1-(2,6-difluorobenzyl)-6-oxo-1,6-dihydropyridin-3-yl)-2-methyl-1H-indol-1-yl)acetic acid], the IC50 is 23 nM.

In turn, `CCn1nc(-c2c(C)n(CC(=O)O)c3ccc(Cl)cc23)ccc1=O` [Example 150, 2-(5-chloro-3-(1-ethyl-6-oxo-1,6-dihydropyridazin-3-yl)-2-methyl-1H-indol-1-yl)acetic acid] returned an IC50 of 559 nM. For `Cc1c(-c2ccc(OC(C)C)nc2)c2cc(F)ccc2n1CC(=O)O` [Example 277] the value was 71 nM. Take `Cc1c(-c2ccc(=O)n(Cc3ccc(F)cc3F)n2)c2cc(Cl)ccc2n1CC(=O)O` [Example 68, 2-(5-chloro-3-(1-(2,4-difluorobenzyl)-6-oxo-1,6-dihydropyridazin-3-yl)-2-methyl-1H-indol-1-yl)acetic acid]: the half-inhibitory concentration (IC50) was 10 nM. As to `Cc1c(-c2ccc(=O)n(Cc3ccccc3F)n2)c2ccccc2n1CC(=O)O` [Example 190, 2-(3-(1-(2-fluorobenzyl)-6-oxo-1,6-dihydropyridazin-3-yl)-2-methyl-1H-indol-1-yl)acetic acid], the IC50 came out at 867 nM. In turn, `Cc1c(-c2ccc(=O)n(CC(F)(F)F)n2)c2cc(F)ccc2n1CC(=O)O` [Example 162, 2-(5-Fluoro-2-methyl-3-(6-oxo-1-(2,2,2-trifluoroethyl)-1,6-dihydropyridazin-3-yl)-1H-indol-1-yl)acetic acid] registered an IC50 of 462 nM. For `CCn1nc(-c2c(C)n(CC(=O)O)c3ccccc23)ccc1=O` [Example 182, 2-(3-(1-ethyl-6-oxo-1,6-dihydropyridazin-3-yl)-2-methyl-1H-indol-1-yl)-acetic acid] the value was 1720 nM. Molecule `Cc1c(-c2ccc(=O)n(Cc3ccccc3)n2)c2cc(S(C)(=O)=O)cc(F)c2n1CC(=O)O` [Example 17, 2-(3-(1-Benzyl-6-oxo-1,6-dihydropyridazin-3-yl)-7-fluoro-2-methyl-5-(methylsulfonyl)-1H-indol-1-yl)acetic acid] gave a concentration for half-maximal inhibition (IC50) of 2780 nM. Molecule `Cc1c(-c2ccc(=O)n(Cc3cccc(C(F)(F)F)c3)n2)c2cc(F)ccc2n1CC(=O)O` [Example 218, 2-(5-fluoro-2-methyl-3-(6-oxo-1-(3-(trifluoromethyl)benzyl)-1,6-dihydropyridazin-3-yl)-1H-indol-1-yl)acetic acid] yielded an IC50 of 24 nM. On to `Cc1c(Cc2ccc(=O)n(Cc3cccc(F)c3F)c2)c2cc(Cl)ccc2n1CC(=O)O` [Example 43, 2-(5-Chloro-3-((1-(2,3-difluorobenzyl)-6-oxo-1,6-dihydropyridin-3-yl)-methyl)-2-methyl-1H-indol-1-yl)acetic acid], for which the IC50 turned out to be 9 nM. In turn, `Cc1c(-c2nn(-c3cccc(C(F)(F)F)c3)c(=O)c3ccccc23)c2cc(F)ccc2n1CC(=O)O` [Example 207, 2-(5-fluoro-2-methyl-3-(4-oxo-3-(3-(trifluoromethyl)phenyl)-3,4-dihydrophthalazin-1-yl)-1H-indol-1-yl)acetic acid] registered an IC50 of 588 nM.

`Cc1c(-c2ccc(=O)n(CC(F)(F)F)c2)c2ccccc2n1CC(=O)O` [Example 279, 2-(2-methyl-3-(6-oxo-1-(2,2,2-trifluoroethyl)-1,6-dihydropyridin-3-yl)-1H-indol-1-yl)acetic acid] displayed an IC50 of 715 nM. For the molecule `Cc1c(-c2ccc(=O)n(Cc3ccc(Cl)c(F)c3)n2)c2cc(F)ccc2n1CC(=O)O` [Example 12, 2-(3-(1-(4-chloro-3-fluorobenzyl)-6-oxo-1,6-dihydropyridazin-3-yl)-5-fluoro-2-methyl-1H-indol-1-yl)acetic acid], the IC50 was 6 nM. `Cc1c(-c2ccc(=O)n(C(C)C)c2)c2cc(Cl)ccc2n1CC(=O)O` [Example 278, 2-(5-chloro-3-(1-isopropyl-6-oxo-1,6-dihydropyridin-3-yl)-2-methyl-1H-indol-1-yl)acetic acid] displayed a concentration for half-maximal inhibition (IC50) of 198 nM. For `Cc1ccc2c(c1)c(-c1ccc(=O)n(CC(F)(F)F)c1)c(C)n2CC(=O)O` [Example 304, 2-(2,5-dimethyl-3-(6-oxo-1-(2,2,2-trifluoroethyl)-1,6-dihydropyridin-3-yl)-1H-indol-1-yl)acetic acid] the value was 1180 nM; for `Cc1c(Cc2ccc(=O)n(Cc3ccc(F)cc3)c2)c2ccccc2n1CC(=O)O` [Example 40, 2-(3-((1-(4-Fluorobenzyl)-6-oxo-1,6-dihydropyridin-3-yl)methyl)-2-methyl-1H-indol-1-yl)acetic acid], 30 nM.

The molecule `Cc1c(-c2nn(Cc3ccc(S(C)(=O)=O)cc3)c(=O)c3ccccc23)c2cc(Cl)ccc2n1CC(=O)O` [Example 332, (5-chloro-2-methyl-3-{3-[4-(methylsulfonyl)benzyl]-4-oxo-3,4-dihydro-phthalazin-1-yl}-1H-indol-1-yl)acetic acid] came in with a half-maximal inhibitory concentration (IC50) of 26 nM.

Regarding `Cc1c(-c2ccc(=O)n(Cc3ccccc3)n2)c2ccccc2n1CC(=O)O` [Example 180, 2-(3-(1-benzyl-6-oxo-1,6-dihydropyridazin-3-yl)-2-methyl-1H-indol-1-yl)-acetic acid], the IC50 came out at 96 nM. For `Cc1c(-c2nn(Cc3ccc(Cl)cc3Cl)c(=O)c3ccccc23)c2cc(Cl)ccc2n1CC(=O)O` [Example 331, {5-chloro-3-[3-(2,4-dichlorobenzyl)-4-oxo-3,4-dihydrophthalazin-1-yl]-2-methyl-1H-indol-1-yl}acetic acid] the value was 3 nM; for `Cc1c(Cc2ccc(=O)n(Cc3ccc(F)cc3F)c2)c2ccccc2n1CC(=O)O` [Example 21, 2-(3-((1-(2,4-Difluorobenzyl)-6-oxo-1,6-dihydropyridin-3-yl)methyl)-2-methyl-1H-indol-1-yl)acetic acid], 18 nM. Turning to `Cc1c(-c2ccc(=O)n(Cc3cccc(F)c3F)c2)c2cc(F)ccc2n1CC#N` [Example 310, 2-(3-(1-(2,3-difluorobenzyl)-6-oxo-1,6-dihydropyridin-3-yl)-5-fluoro-2-methyl-1H-indol-1-yl)acetonitrile], the IC50 was > 1000 nM. In turn, `Cc1c(-c2ccc(=O)n(Cc3ccc(F)cc3)n2)c2cc(Cl)ccc2n1CC(=O)O` [Example 139, 2-(5-Chloro-3-(1-(4-fluorobenzyl)-6-oxo-1,6-dihydropyridazin-3-yl)-2-methyl-1H-indol-1-yl)acetic acid] gave an IC50 of 24 nM. With `Cc1c(-c2ccc(=O)n(Cc3ccccc3C(F)(F)F)n2)c2cc(F)ccc2n1CC(=O)O` [Example 216, 2-(5-fluoro-2-methyl-3-(6-oxo-1-(2-(trifluoromethyl)benzyl)-1,6-dihydropyridazin-3-yl)-1H-indol-1-yl)acetic acid], the IC50 worked out at 14 nM. Molecule `Cc1c(-c2nn(CCOc3ccccc3)c(=O)c3ccccc23)c2cc(Cl)ccc2n1CC(=O)O` [Example 221, 2-(5-chloro-2-methyl-3-(4-oxo-3-(2-phenoxyethyl)-3,4-dihydrophthalazin-1-yl)-1H-indol-1-yl)acetic acid] gave an IC50 of 6 nM. On to `Cc1c(Cc2ccc(=O)n(Cc3ccccc3)n2)c2ccccc2n1CC(=O)O` [Example 77, 2-(3-((1-Benzyl-6-oxo-1,6-dihydropyridazin-3-yl)methyl)-2-methyl-1H-indol-1-yl)acetic acid], for which the IC50 was found to be 32 nM. For `Cc1c(-c2nn(Cc3ccccc3F)c(=O)c3ccccc23)c2cc(Cl)ccc2n1CC(=O)O` [Example 98, 2-(5-Chloro-3-(3-(2-fluorobenzyl)-4-oxo-3,4-dihydrophthalazin-1-yl)-2-methyl-1H-indol-1-yl)acetic acid], the IC50 is 17 nM. Molecule `Cc1c(Cc2ccc(=O)n(C(C)C)c2)c2cc(F)ccc2n1CC(=O)O` [Example 27, 2-(5-fluoro-3-((1-isopropyl-6-oxo-1,6-dihydropyridin-3-yl)methyl)-2-methyl-1H-indol-1-yl)acetic acid] showed an IC50 of 137 nM. For `Cc1c(-c2ccc(=O)n(Cc3cccc(F)c3F)c2)c2cc(F)ccc2n1CC(=O)O` [Example 269, 2-(3-(1-(2,3-difluorobenzyl)-6-oxo-1,6-dihydropyridin-3-yl)-5-fluoro-2-methyl-1H-indol-1-yl)acetic acid] the value was 1 nM. Consider `Cc1c(-c2ccc(=O)n(Cc3cccc(F)c3F)c2)c2cc(F)ccc2n1CC(=O)N1CCCC1` [Example 299, 1-(2,3-difluorobenzyl)-5-(5-fluoro-2-methyl-1-(2-oxo-2-(pyrrolidin-1-yl)-ethyl)-1H-indol-3-yl)pyridin-2(1H)-one], for which the IC50 was > 2000 nM.

Consider `Cc1c(-c2ccc(=O)n(CCCC(F)(F)F)c2)c2cc(F)ccc2n1CC(=O)NS(C)(=O)=O` [Example 318, 2-(5-fluoro-2-methyl-3-(6-oxo-1-(4,4,4-trifluorobutyl)-1,6-dihydropyridin-3-yl)-1H-indol-1-yl)-N-(methylsulfonyl)acetamide], for which the IC50 was > 1000 nM. With `Cc1c(-c2nn(Cc3ccccc3)c(=O)c3ccccc23)c2ccccc2n1CC(=O)NS(C)(=O)=O` [Example 50, 2-(3-(3-Benzyl-4-oxo-3,4-dihydrophthalazin-1-yl)-2-methyl-1H-indol-1-yl)-N-(methylsulfonyl)acetamide], the IC50 was > 1500 nM. With `Cc1c(-c2ccc(=O)n(Cc3ccccc3F)c2)c2ccccc2n1CC(=O)O` [Example 282, 2-(3-(1-(2-fluorobenzyl)-6-oxo-1,6-dihydropyridin-3-yl)-2-methyl-1H-indol-1-yl)acetic acid], the IC50 was 11 nM.
